Experimental findings from patent US20230135729A1, “COMPOUND WITH ANTI-SPORE ACTIVITY AND PHARMACEUTICAL COMPOSITION THEREOF” (priority 2020, published 2023) are described below.

≈ marks a conversion by molar mass, not a printed value.

Common to all, as to assay type: cell-based
Test [1] concerns spores of ATCC BBA1870 strain. The experiment in a line: Inhibition of germination of C. difficile spores (MIC), strain ATCC BBA1870. As to conditions: Clostridioides difficile, ATCCBBA1870STRAIN, 1 h; strain 1870; sodium taurocholate as germinant, BHIS medium, 37° C., OD580 for 60 min; read-out: MIC (minimum concentration that completely inhibits spore germination). In outline: (§1)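 Spores heat-activated for 30 min at 65° C and washed, then preincubated with compound (10 mM DMSO stock) in BHIS at 37° C. Germination was triggered with sodium taurocholate, and OD580 was read each minute for 60 min. Inhibition = 100% − germination rate, from final vs initial OD relative to germinant-only controls.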

For test [2], the system named is spores of ATCC 43255 strain. The test can be described thus: Inhibition of germination of C. difficile spores (MIC), strain ATCC 43255. As to conditions: Clostridioides difficile, ATCC43255, 1 h; strain 43255; sodium taurocholate as germinant, BHIS medium, 37° C., OD580 for 60 min; read-out: MIC (minimum concentration that completely inhibits spore germination). In outline: as §1

Test [3] concerns spores of ATCC 630 strain. The experiment in a line: Inhibition of germination of C. difficile spores (MIC), strain ATCC 630. As to conditions: Clostridioides difficile, ATCC630, 1 h; strain 630; sodium taurocholate as germinant, BHIS medium, 37° C., OD580 for 60 min; read-out: MIC (minimum concentration that completely inhibits spore germination). In outline:
as §1

For the compound `CC[C@@H](NC(=O)C[C@@H](C)[C@H]1CC[C@H]2[C@@H]3[C@H](O)C[C@@H]4C[C@H](OC)CC[C@]4(C)[C@H]3CC[C@]12C)c1ccc(Cl)s1` [Compound I-169], the MIC turned out to be 256 µM (≈ 141 µg/mL) in test [1], 256 µM (≈ 141 µg/mL) in test [2] and 128 µM (≈ 70.4 µg/mL) in test [3].

For the compound `CC[C@@H](NC(=O)C[C@@H](C)[C@H]1CC[C@H]2[C@@H]3[C@H](OS(=O)(=O)O)C[C@@H]4CC(=O)CC[C@]4(C)[C@H]3CC[C@]12C)c1ccc(Cl)s1` [Compound I-106], the MIC in test [1] was found to be 0.5 µM (≈ 0.307 µg/mL); in test [2], 0.25 µM (≈ 0.154 µg/mL); in test [3], 0.5 µM (≈ 0.307 µg/mL).

With `CC[C@@H](NC(=O)C[C@@H](C)[C@H]1CC[C@H]2[C@@H]3[C@H](OS(=O)(=O)O)C[C@@H]4CC(=O)CC[C@]4(C)[C@H]3CC[C@]12C)c1ccc(Br)s1` [Compound I-109], the MIC in test [1] was found to be 0.5 µM (≈ 0.329 µg/mL); in test [2], 0.25 µM (≈ 0.165 µg/mL); in test [3] it was 0.5 µM (≈ 0.329 µg/mL).

For `CC(C)C(NC(=O)C[C@@H](C)[C@H]1CC[C@H]2[C@@H]3C[C@H](O)[C@@H]4C[C@H](O)CC[C@]4(C)[C@H]3CC[C@]12C)c1cccs1` (stereo partly drawn) [Compound I-127], the figures for the MIC in test [1], in test [2] and in test [3] were 8 µM (≈ 4.13 µg/mL), 8 µM (≈ 4.13 µg/mL) and 4 µM (≈ 2.06 µg/mL), respectively.

Consider `CC(C)[C@H](NC(=O)C[C@@H](C)[C@H]1CC[C@H]2[C@@H]3[C@H](OS(=O)(=O)O)C[C@@H]4CC(=O)CC[C@]4(C)[C@H]3CC[C@]12C)c1ccc(Cl)s1` [Compound I-111], for which the MIC in test [1], in test [2] and in test [3] was above 256 µM in each case.

For `CC[C@@H](NC(=O)C[C@@H](C)[C@H]1CC[C@H]2[C@@H]3[C@H](OC(=O)CCC(=O)O)C[C@@H]4CC(=O)CC[C@]4(C)[C@H]3CC[C@]12C)c1ccc(Cl)s1` [Compound I-179], the MIC in test [1], in test [2] and in test [3] was 2 µM (≈ 1.27 µg/mL) in each case.

Turning to `C[C@H](CC(=O)NC(c1ccccc1)c1ccccc1)[C@H]1CC[C@H]2[C@@H]3C(=O)C[C@@H]4CC(=O)CC[C@]4(C)[C@H]3CC[C@]12C` [Compound I-61], the MIC in test [1], in test [2] and in test [3] was 128 µM (≈ 69.1 µg/mL) in each case.

`CC(=O)O[C@@H]1CC2=CC(=O)CC[C@]2(C)[C@H]2CC[C@]3(C)[C@@H]([C@H](C)CC(=O)N[C@@H](c4ccc(Br)s4)C(C)C)CC[C@H]3[C@H]12` [I-156 -1]: the MIC in test [1], in test [2] and in test [3] was 0.5 µM (≈ 0.316 µg/mL) each time.

Turning to `CC[C@@H](NC(=O)C[C@@H](C)[C@H]1CC[C@H]2[C@@H]3[C@H](O)C[C@@H]4CC(=O)CC[C@]4(C)[C@H]3CC[C@]12C)c1ccc(S(=O)(=O)O)s1` [Compound I-94], the MIC in test [1] turned out to be 8 µM (≈ 4.64 µg/mL); in test [2], 16 µM (≈ 9.28 µg/mL); in test [3], 8 µM (≈ 4.64 µg/mL).

As for `CC(C)[C@@H](NC(=O)C[C@@H](C)[C@H]1CC[C@H]2[C@@H]3C(=O)C[C@@H]4CC(=O)CC[C@]4(C)[C@H]3CC[C@]12C)c1ccc(C=O)s1` [Compound I-200], the MIC stood at 32 µM (≈ 17.3 µg/mL) in test [1], 32 µM (≈ 17.3 µg/mL) in test [2] and 16 µM (≈ 8.64 µg/mL) in test [3].

In the case of `C[C@H](CC(=O)NC(c1cccs1)C1CC1)[C@H]1CC[C@H]2[C@@H]3[C@H](O)C[C@@H]4CC(=O)CC[C@]4(C)[C@H]3CC[C@]12C` (stereo partly drawn) [Compound I-85], the MIC in test [1], in test [2] and in test [3] was 0.5 µM (≈ 0.256 µg/mL) each time.

In the case of `CC[C@@H](NC(=O)C[C@@H](C)[C@H]1CC[C@H]2[C@@H]3C(=O)CC4=CC(=O)C=C[C@]4(C)[C@H]3CC[C@]12C)c1ccc(Cl)s1` [Compound I-153], the MIC in test [1], in test [2] and in test [3] was 0.5 µM (≈ 0.264 µg/mL) in each case.

On to `CC(C)[C@H](NC(=O)C[C@@H](C)[C@H]1CC[C@H]2[C@@H]3C(=O)C[C@@H]4CC(=O)CC[C@]4(C)[C@H]3CC[C@]12C)c1cccs1` [Compound I-67], for which the MIC in test [1], in test [2] and in test [3] was above 256 µM in each case.

In the case of `CC[C@H](NC(=O)C[C@@H](C)[C@H]1CC[C@H]2[C@@H]3[C@H](O)C[C@@H]4CC(=O)CC[C@]4(C)[C@H]3CC[C@]12C)c1cccs1` [Compound I-132], the MIC was above 256 µM in test [1], 128 µM (≈ 64 µg/mL) in test [2] and 256 µM (≈ 128 µg/mL) in test [3].

As for `CC[C@H](NC(=O)C[C@@H](C)[C@H]1CC[C@H]2[C@@H]3[C@H](OS(=O)(=O)O)C[C@@H]4CC(=O)CC[C@]4(C)[C@H]3CC[C@]12C)c1ccc(Cl)s1` [Compound I-105], the MIC in test [1], in test [2] and in test [3] was above 256 µM each time.

Take `CC(C)[C@@H](NC(=O)C[C@@H](C)[C@H]1CC[C@H]2[C@@H]3[C@H](O)[C@H](O)[C@@H]4C[C@H](O)CC[C@]4(C)[C@H]3CC[C@]12C)c1ccc(Cl)s1` [Compound I-120]: the MIC in test [1], in test [2] and in test [3] was 16 µM (≈ 9.06 µg/mL) each time.

With `CC[C@@H](NC(=O)C[C@@H](C)[C@H]1CC[C@H]2[C@@H]3[C@H](OC(C)=O)CC4=CC(=O)C=C[C@]4(C)[C@H]3CC[C@]12C)c1ccc(Cl)s1` [I-161 -1], the MIC in test [1] came out at 0.5 µM (≈ 0.286 µg/mL); in test [2], 0.5 µM (≈ 0.286 µg/mL); in test [3] it was 0.25 µM (≈ 0.143 µg/mL).

Turning to `C[C@H](CC(=O)NC(c1ccc(S(=O)(=O)O)s1)C1CC1)[C@H]1CC[C@H]2[C@@H]3C(=O)C[C@@H]4CC(=O)CC[C@]4(C)[C@H]3CC[C@]12C` (stereo partly drawn) [Compound I-52], the MIC in test [1], in test [2] and in test [3] was 16 µM (≈ 9.44 µg/mL) each time.

In the case of `CC(C)C(NC(=O)C[C@@H](C)[C@H]1CC[C@H]2[C@@H]3C(=O)C[C@@H]4CC(=O)CC[C@]4(C)[C@H]3CC[C@]12C)c1ccc(Cl)s1` (stereo partly drawn) [Compound I-75], the MIC in test [1], in test [2] and in test [3] was 0.5 µM (≈ 0.273 µg/mL) throughout.

Turning to `C[C@H](CC(=O)NCc1cccs1)[C@H]1CC[C@H]2[C@@H]3[C@H](O)C[C@@H]4C[C@H](O)CC[C@]4(C)[C@H]3CC[C@]12C` [Compound I-3], the MIC came out at 8 µM (≈ 3.79 µg/mL) in test [1], 8 µM (≈ 3.79 µg/mL) in test [2] and 4 µM (≈ 1.89 µg/mL) in test [3].

As for `CC[C@@H](NC(=O)C[C@@H](C)[C@H]1CC[C@H]2[C@@H]3[C@H](O)C[C@@H]4CC(=O)CC[C@]4(C)[C@H]3CC[C@]12C)c1ccc(Cl)s1` [Compound I-88], the MIC was determined as 0.25 µM (≈ 0.134 µg/mL) in test [1], 0.25 µM (≈ 0.134 µg/mL) in test [2] and 0.125 µM (≈ 0.0668 µg/mL) in test [3].

Turning to `C[C@H](CC(=O)NCc1ccco1)[C@H]1CC[C@H]2[C@@H]3[C@H](O)C[C@@H]4C[C@H](O)CC[C@]4(C)[C@H]3C[C@H](O)[C@]12C` [Compound I-17], the MIC worked out at 64 µM (≈ 30.3 µg/mL) in test [1], 32 µM (≈ 15.2 µg/mL) in test [2] and 32 µM (≈ 15.2 µg/mL) in test [3].

On to `CCC(NC(=O)C[C@@H](C)[C@H]1CC[C@H]2[C@@H]3[C@H](O)C[C@@H]4CC(=O)CC[C@]4(C)[C@H]3CC[C@]12C)c1cccs1` (stereo partly drawn) [Compound I-84], for which the MIC in test [1], in test [2] and in test [3] was 1 µM (≈ 0.5 µg/mL) throughout.
